The values below come from publication PMC3684073 (Journal of agricultural and food chemistry, 2008).

Like-named read-outs stand apart in the source and are kept apart here. A value given as a limit tells only on which side of the number the result lay.

Test [1] concerns the target T1, 5-HT7 receptor (Homo sapiens, UniProt P34969). Kind of test: 5-HT7 receptor competitive binding assay. As to conditions: for 5-HT7 competitive binding % Inhibition ± SD: tested at 50 μM, NA = not active.
The next test deals with 5-HT6 (Homo sapiens, UniProt P50406). Kind of test: MDS Pharma serotonin receptor binding, 5-HT6.
The target of test [2] is human serotonin transporter (hSERT) (Homo sapiens, UniProt P31645). Put plainly: cell-based.
The target in a further test is T2, 5-HT2C (Homo sapiens, UniProt P28335).
T2 sequence (P28335 33-458): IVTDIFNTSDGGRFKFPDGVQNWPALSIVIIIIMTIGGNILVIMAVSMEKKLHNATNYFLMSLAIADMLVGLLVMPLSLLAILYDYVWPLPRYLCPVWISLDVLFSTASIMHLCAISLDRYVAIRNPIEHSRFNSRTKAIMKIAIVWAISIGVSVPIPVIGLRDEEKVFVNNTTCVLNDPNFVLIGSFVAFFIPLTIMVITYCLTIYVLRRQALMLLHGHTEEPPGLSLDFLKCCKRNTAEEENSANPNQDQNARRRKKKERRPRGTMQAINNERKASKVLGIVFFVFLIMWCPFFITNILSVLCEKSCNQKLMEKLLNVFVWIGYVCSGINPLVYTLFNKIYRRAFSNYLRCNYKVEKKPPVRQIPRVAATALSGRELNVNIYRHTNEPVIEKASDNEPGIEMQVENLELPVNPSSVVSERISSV
Kind of test: MDS Pharma serotonin receptor binding, 5-HT2C.

For another test, the target named is 5-HT4 (Cavia porcellus, UniProt O70528). Kind of test: MDS Pharma serotonin receptor binding, 5-HT4.
The target of a further test is T3, 5-HT1A (Homo sapiens, UniProt P08908).
T3 sequence (P08908 1-422): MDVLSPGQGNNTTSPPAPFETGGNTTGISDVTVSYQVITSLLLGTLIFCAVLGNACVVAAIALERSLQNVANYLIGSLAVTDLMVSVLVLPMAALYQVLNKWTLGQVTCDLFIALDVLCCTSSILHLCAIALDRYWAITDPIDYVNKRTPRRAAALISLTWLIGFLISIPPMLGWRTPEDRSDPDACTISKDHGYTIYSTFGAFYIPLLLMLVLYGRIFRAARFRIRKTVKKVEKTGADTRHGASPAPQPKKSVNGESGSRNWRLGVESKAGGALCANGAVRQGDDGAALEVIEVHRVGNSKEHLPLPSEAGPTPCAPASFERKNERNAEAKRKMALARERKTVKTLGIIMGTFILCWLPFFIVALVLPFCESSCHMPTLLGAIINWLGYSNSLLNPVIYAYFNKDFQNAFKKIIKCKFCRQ
Kind of test: MDS Pharma serotonin receptor binding, 5-HT1A.

A further test deals with 5-HT1B (Rattus norvegicus, UniProt P28564). Put plainly: MDS Pharma serotonin receptor binding, 5-HT1B.
The target of the next test is 5-HT2B (Homo sapiens, UniProt P41595). Kind of test: MDS Pharma serotonin receptor binding, 5-HT2B.
The target of a further test is T4, 5-HT3 (Homo sapiens, UniProt P46098).
T4 sequence (P46098 24-478): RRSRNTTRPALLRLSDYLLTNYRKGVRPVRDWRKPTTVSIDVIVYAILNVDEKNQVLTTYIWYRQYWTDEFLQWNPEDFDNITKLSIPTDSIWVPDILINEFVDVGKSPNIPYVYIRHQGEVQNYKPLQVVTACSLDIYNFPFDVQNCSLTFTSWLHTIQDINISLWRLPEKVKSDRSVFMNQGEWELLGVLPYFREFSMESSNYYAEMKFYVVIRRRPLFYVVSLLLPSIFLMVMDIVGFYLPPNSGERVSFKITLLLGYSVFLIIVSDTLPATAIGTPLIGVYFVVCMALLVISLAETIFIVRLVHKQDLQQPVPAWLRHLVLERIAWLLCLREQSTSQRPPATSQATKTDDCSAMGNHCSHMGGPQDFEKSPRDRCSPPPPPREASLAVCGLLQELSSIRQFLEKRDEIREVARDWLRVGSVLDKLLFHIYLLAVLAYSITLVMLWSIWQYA
Put plainly: MDS Pharma serotonin receptor binding, 5-HT3.

Test [3] deals with T1, 5-HT7 receptor. Kind of test: Intracellular cAMP assay in 5-HT7-transfected HEK293 cells. The format is cell-based. For orientation: Cyclic AMP is a second messenger, typically raised through Gs and lowered through Gi signalling.
The target in a further test is 5-HT5A (Homo sapiens, UniProt P47898). Kind of test: MDS Pharma serotonin receptor binding, 5-HT5A.
Setting [4] is: read-out: 5-HT7 receptor binding IC50, pure compounds.

With `CC(=O)O[C@@H]1CO[C@@H](O[C@H]2CC[C@]34C[C@]35C[C@@H](OC(C)=O)[C@]3(C)[C@H]6[C@H](C)C[C@]7(OC(O)[C@]8(C)O[C@H]78)O[C@H]6C[C@@]3(C)[C@@H]5CC[C@H]4C2(C)C)[C@H](O)[C@H]1O` (stereo partly drawn) [Cimiracemoside O], at 5-HT7 receptor [1], the “5-HT7 competitive binding % Inhibition ± SD” value amounted to 19 ± 5%.

With `CC(=O)O[C@@H]1C[C@@]23C[C@@]24CC[C@H](O[C@@H]2OC[C@H](O)[C@H](O)[C@H]2O)C(C)(C)[C@@H]4CC[C@H]3[C@]2(C)C[C@@H]3O[C@]4(C[C@@H](C)[C@@H]3[C@@]12C)OC[C@]1(C)O[C@H]41` [Cimiracemoside N], the “5-HT7 competitive binding % Inhibition ± SD” value on 5-HT7 receptor [1] is given as 18 ± 4%.

As to `CNCCc1c[nH]c2ccc(O)cc12` [Nω-methylserotonin, 3-(2-Methylaminoethyl)indol-5-ol], the IC50 (in general, the midpoint of a concentration-inhibition curve) at 5-HT6 worked out at 55 nM; in [2], 490 nM; at 5-HT2C, 101 nM; at 5-HT4, 6700 nM; on 5-HT1A it was 2 nM; on 5-HT7 receptor [1] (5-HT7 receptor binding IC50), 0.023 nM. For the same compound, the IC50 on 5-HT7 receptor [1] (IC50, 5-HT7, triplicate in three independent experiments) came to 0.02 nM; at 5-HT1B, 15 nM; on 5-HT2B, 97 nM; at 5-HT3, 1670 nM; at 5-HT5A, 289 nM. The response on 5-HT7 receptor [3] was half-maximal at 22 nM (EC50). For the same compound, the “maximum cAMP induction” value at 5-HT7 receptor [3] (at 100 nM, the highest tested concentration) was determined as 43 pmol/mL.

Take `COc1ccc(/C=C/C(=O)O[C@H](C(=O)O)[C@](O)(Cc2ccc(O)c(O)c2)C(=O)O)cc1O` [Cimicifugic acid B, cimicifugic acid B]: the IC50 on 5-HT7 receptor [1] is > 500000 nM.

With 23-O-acetylshengmanol-3-β-D-xyloside, the “5-HT7 competitive binding % Inhibition ± SD” value at 5-HT7 receptor [1] was found to be 35 ± 10%.

Regarding 25-anhydrocimigenol-3-O- β-xyloside, on 5-HT7 receptor [1], the “5-HT7 competitive binding % Inhibition ± SD” value stood at 31 ± 8%.

On to `COc1ccc(/C=C/C(=O)O[C@H](C(=O)O)[C@](O)(Cc2ccc(O)cc2)C(=O)O)cc1O` [Cimicifugic acid F, cimicifugic acid F], for which the half-maximal inhibitory concentration (IC50) on 5-HT7 receptor [1] was > 500000 nM.

With Actein (R,S), at 5-HT7 receptor [1] (setting [4]), the IC50 is ≥ 100000 nM.

`CC(=O)O[C@@H]1C[C@@]23C[C@@]24CC[C@H](O[C@@H]2OC[C@@H](O)[C@H](O)[C@H]2O)C(C)(C)[C@@H]4CC[C@H]3[C@]2(C)C[C@@H]3O[C@@]4(C[C@@H](C)[C@@H]3[C@@]12C)OC[C@@]1(C)O[C@@H]41` [23-epi-26-deoxyactein]: on 5-HT7 receptor [1] (setting [4]), the half-inhibitory concentration (IC50) is ≥ 100000 nM.

Take `CC(=O)O[C@@H]1C[C@@]23C[C@@]24CC[C@H](O[C@@H]2OC[C@@H](O)[C@H](O)[C@H]2O)C(C)(C)[C@@H]4CC[C@H]3[C@]2(C)C[C@@H]3O[C@]4(C[C@@H](C)[C@@H]3[C@@]12C)OC[C@@]1(C)O[C@@H]41` [26-deoxyactein]: the IC50 at 5-HT7 receptor [1] (setting [4]) was ≥ 100000 nM. In addition, the “5-HT7 competitive binding % Inhibition ± SD” value on 5-HT7 receptor [1] was 38 ± 4%.

Regarding `COc1cc(/C=C/C(=O)O[C@H](C(=O)O)[C@](O)(Cc2ccc(O)cc2)C(=O)O)ccc1O` [Cimicifugic acid E, cimicifugic acid E], the IC50 at 5-HT7 receptor [1] was > 500000 nM.

Consider `O=C(/C=C/c1ccc(O)c(O)c1)O[C@H](C(=O)O)[C@](O)(Cc1ccc(O)c(O)c1)C(=O)O` [fukinolic acid], for which, on 5-HT7 receptor [1], the 50% inhibitory concentration (IC50) turned out to be 100000 nM.

Turning to `COc1cc(/C=C/C(=O)O[C@H](C(=O)O)[C@](O)(Cc2ccc(O)c(O)c2)C(=O)O)ccc1O` [Cimicifugic acid A, cimicifugic acid A], the IC50 on 5-HT7 receptor [1] was > 500000 nM.
